“Also recorded” adds a separate entry of the source.

Here are results for three compounds from US20260216239A1 (Arizona Board of Regents on Behalf of the University of …, priority 2020, published 2026).

The test system of experiment [1] is Calloselasma rhodostoma venom. In words: Thrombelastography in human plasma of venom procoagulant activity after isolated exposure of venom to compounds. Type of experiment: biochemical. The conditions noted are these: venom 5 μg/ml in plasma. The method, then:
(§1) Thrombelastographic analyses. The volumes of subsequently described plasmatic and other additives summed to a final volume of 360 μl. Samples were composed of 320 μl of plasma; 16.4 μl of PBS, 20 μl of 200 mM CaCl2), and 3.6 μl of PBS or venom mixture, which were pipetted into a disposable cup in a Thrombelastograph® hemostasis system (Model 5000, Haemonetics Inc., Braintree, MA, USA) at 37° C., and then rapidly mixed by moving the cup up against and then away from the plastic pin five times. The following viscoelastic parameters described previously (see, Nielsen V G (2019) J Thromb Thrombolysis 47, 73-79; Gessner G, et al., (2017) Eur J Pharmacol 815, 33-41; Nielsen V G, Wagner M T, Frank N (2020) Int J Mol Sci 21, 2082; Lazić D, Arsenijević A, Puchta R, Bugarčić ŽD, Rilak A (2016) Dalton Trans 45, 4633; Hanif M, et al., (2017) ChemPlusChem 82, 841-847) were measured: time to maximum rate of thrombus generation (TMRTG): this is the time interval (minutes) observed prior to maximum speed of clot growth; maximum rate of thrombus generation (MRTG): this is the maximum velocity of clot growth observed (dynes/cm^2/second); and total thrombus generation (TTG, dynes/cm^2), the final viscoelastic resistance observed after clot formation.
C. rhodostoma. […] The final concentration of this venom in plasma was 5 μg/ml.
(§2) Given the aforementioned, the experimental conditions utilized were: 1) V condition—venom in PBS; 2) Ru(II) condition—venom exposed to CORM-2; 3) Ru(III) condition—venom exposed to RuCl3; 4) Ru(II+III) condition—venom exposed to CORM-2 and RuCl3 simultaneously. After the 5 minute period at room temperature, 3.6 μl of one of these solutions was added to the plasma sample in the plastic thrombelastograph cup.
(§3) The volumes of subsequently described plasmatic and other additives summed to a final volume of 360 μl. Samples were composed of 320 μl of plasma; 16.4 μl of PBS, 20 μl of 200 mM CaCl2), and 3.6 μl of PBS or venom mixture, which were pipetted into a disposable cup in a Thrombelastograph® hemostasis system (Model 5000, Haemonetics Inc., Braintree, MA, USA) at 37° C., and then rapidly mixed by moving the cup up against and then away from the plastic pin five times. The following viscoelastic parameters described previously (see, Nielsen, V. G. J Thromb Thrombolysis 2019, 47, 73-79; Gessner, G.; et al., Eur J Pharmacol 2017, 815, 33-41; Nielsen, V. G.; Wagner, M. T.; Frank, N. Int J Mol Sci 2020, 21, 2082; Lazid, D.; et al., Dalton Trans 2016, 45, 4633; Hanif, M.; et al., ChemPlusChem 2017, 82, 841-847) were measured: time to maximum rate of thrombus generation (TMRTG): this is the time interval (minutes) observed prior to maximum speed of clot growth; maximum rate of thrombus generation (MRTG): this is the maximum velocity of clot growth observed (dynes/cm2/second); and total thrombus generation (TTG, dynes/cm2), the final viscoelastic resistance observed after clot formation.
C. rhodostoma. […] This venom was also exposed to 0 or 100 μM CORM-2 in the presence of 0 or 100 μM carboplatin in another series of experiments. The final concentration of this venom in plasma was 5 μg/ml.

The subject of a further experiment is Bothrops moojeni venom. The experiment is described as above. Type of experiment: biochemical. The note with it: venom 2 μg/ml in plasma; for procoagulant activity of venom: venom exposed ≥5 min in PBS to 1 mM CORM-2, 100 μM RuCl3 or both, vs venom alone. The protocol:
as §1
B. moojeni. This venom was exposed to 0 or 1 mM CORM-2 in the presence of 0 or 100 μM RuCl3 in PBS for at least 5 minutes at room temperature prior to placement into plasma followed immediately with commencement of thrombelastographic analysis. The final concentration of this venom in plasma was 2 μg/ml.
as §2, §3
B. moojeni. This venom was exposed to 0 or 1 mM CORM-2 or CORM-3 in the presence of 0 or 100 μM RuCl3 in PBS for at least 5 minutes at room temperature prior to placement into plasma followed immediately with commencement of thrombelastographic analysis. This venom was also exposed to 0 or 1 mM CORM-2 in the presence of 0 or 100 μM carboplatin in another series of experiments. The final concentration of this venom in plasma was 2 μg/ml.
Given the aforementioned, the experimental conditions utilized were: 1) V condition—venom in PBS; 2) Ru(II) condition—venom exposed to CORM-2 or CORM-3; 3) Ru(III) condition—venom exposed to RuCl3; 4) Ru(II+III) condition—venom exposed to CORM-2 or CORM-3 and RuCl3 simultaneously; 5) Pt(II) condition—venom exposed to carboplatin; and 6) Pt+Ru condition—venom exposed to carboplatin and CORM-2.

Where [2] appears, read: 100 μM CORM-3, 100 μM RuCl3 or both.
The mark [3] stands for this setting: 1 mM CORM-3, 100 μM RuCl3 or both.
The mark [4] stands for this setting: venom exposed ≥5 min in PBS to 1 mM CORM-3, 100 μM RuCl3 or both.
The mark [5] stands for this setting: 50 μM CORM-2, 50 μM RuCl3 or both.
[6] abbreviates: venom exposed ≥5 min in PBS to 50 μM CORM-2, 50 μM RuCl3 or both.
The mark [7] stands for this setting: 100 μM carboplatin, 100 μM CORM-2 or both.
The mark [8] stands for this setting: 100 μM carboplatin, 1 mM CORM-2 or both.
Where [9] appears, read: 1 mM CORM-2, 100 μM RuCl3 or both.

Consider “Tricarbonylchloro(glycinato)ruthenium [CORM-3]”, for which the “procoagulant activity of venom” value in experiment [1] (setting [2]) is reported as “no significant effect”. Moreover, in the experiment with Bothrops moojeni venom (setting [3]), the “maximum rate of thrombus generation (MRTG)” value (shortened to “maximum rate … (MRTG)”) is “did not significantly change” and the “total thrombus generation (TTG)” value is recorded as “significantly increased”. The “time to maximum rate of thrombus generation (TMRTG)” value (“time to maximum rate” for short) in the experiment on Bothrops moojeni venom (setting [4]) is “significant increase”.

For the compound `[Cl][Ru]([Cl])[Cl]` [RuCl3, ruthenium(III) chloride], the “maximum rate … (MRTG)” value was “decrease” in experiment [1] (setting [5]), “decrease” in experiment [1] (setting [2]) and “did not significantly change” in the experiment on Bothrops moojeni venom (setting [3]). Besides, the “time to maximum rate” value in experiment [1] (setting [5]) is “increase”; in experiment [1] (setting [2]) it was “significant increase”; with Bothrops moojeni venom (setting [4]) it was “significant increase”. Besides, the “procoagulant activity of venom” value is “significantly diminished” in experiment [1] (setting [6]) and “no significant effect; also recorded: did not significantly diminish” in the experiment with Bothrops moojeni venom. The “total thrombus generation (TTG)” value in the experiment with Bothrops moojeni venom (setting [3]) is “significantly increased”.

`[C-]#[O+].[C-]#[O+].[C-]#[O+].[C-]#[O+].[C-]#[O+].[C-]#[O+].[Cl][Ru][Cl].[Cl][Ru][Cl]` [CORM-2, tricarbonyldichlororuthenium(II) dimer]: the “maximum rate … (MRTG)” value is given as “decrease” in experiment [1] (setting [5]), “decrease” in experiment [1] (setting [7]), “decreased” with Bothrops moojeni venom (setting [8]) and “decrease” in the experiment with Bothrops moojeni venom (setting [9]). Besides, the “time to maximum rate” value in experiment [1] (setting [5]) was “increased; also recorded: significant increase”; in experiment [1] (setting [7]) it was “significant increase”; in the experiment with Bothrops moojeni venom (setting [8]), “significantly increased”; with Bothrops moojeni venom (setting [9]), “prolonged; also recorded: significant increase”. Further, the “total thrombus generation (TTG)” value in experiment [1] (setting [7]) is recorded as “decrease”. Further, the “procoagulant activity of venom” value in experiment [1] (setting [6]) was “significantly decreased; also recorded: procoagulant activity inhibition”; with Bothrops moojeni venom it was “significant loss of activity; also recorded: inhibition of procoagulant activity”.
